Where “and” joins values, the source holds several entries; their conditions need not be identical. Equal values may be shown once. Toxic doses and inconclusive results are not listed.
System: L1210 leukemia ip in BDF1 mice, survival T/C
Assay: NCI In Vivo Anticancer Drug Screen. Data for tumor model L1210 Leukemia (intraperitoneal) in B6D2F1 (BDF1) mice
Details: endpoint: mean survival time, higher = longer survival
How it was run: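 Transplanted-tumor mice were given test agent; controls received vehicle only. Survival readings from the two groups were divided (treated over control).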

[1] = dose: 100.0 mg/kg/injection, schedule: Q04DX003 (ip), vehicle: saline with Tween-80
[2] = dose: 200.0 mg/kg/injection, schedule: Q04DX003 (ip), vehicle: saline with Tween-80
[3] = dose: 400.0 mg/kg/injection, schedule: Q04DX003 (ip), vehicle: saline with Tween-80
[4] = dose: 75.0 mg/kg/injection, schedule: Q01DX001 (ip), vehicle: saline
[5] = dose: 150.0 mg/kg/injection, schedule: Q01DX001 (ip), vehicle: saline
[6] = dose: 300.0 mg/kg/injection, schedule: Q01DX001 (ip), vehicle: saline
[7] = dose: 12.5 mg/kg/injection, schedule: Q01DX005 (ip), vehicle: saline
[8] = dose: 25.0 mg/kg/injection, schedule: Q01DX005 (ip), vehicle: saline
[9] = dose: 100.0 mg/kg/injection, schedule: Q01DX005 (ip), vehicle: saline
[10] = dose: 100.0 mg/kg/injection, schedule: Q01DX009 (ip), vehicle: Klucel (hydroxypropylcellulose) (HPC)
[11] = dose: 100.0 mg/kg/injection, schedule: Q04DX003 (ip), vehicle: Klucel (hydroxypropylcellulose) (HPC)
[12] = dose: 200.0 mg/kg/injection, schedule: Q01DX009 (ip), vehicle: Klucel (hydroxypropylcellulose) (HPC)
[13] = dose: 200.0 mg/kg/injection, schedule: Q04DX003 (ip), vehicle: Klucel (hydroxypropylcellulose) (HPC)
[14] = dose: 400.0 mg/kg/injection, schedule: Q01DX009 (ip), vehicle: Klucel (hydroxypropylcellulose) (HPC)
[15] = dose: 400.0 mg/kg/injection, schedule: Q04DX003 (ip), vehicle: Klucel (hydroxypropylcellulose) (HPC)
[16] = dose: 50.0 mg/kg/injection, schedule: Q01DX009 (ip), vehicle: saline with Tween-80
[17] = dose: 100.0 mg/kg/injection, schedule: Q01DX009 (ip), vehicle: saline with Tween-80
[18] = dose: 200.0 mg/kg/injection, schedule: Q01DX009 (ip), vehicle: saline with Tween-80
[19] = dose: 50.0 mg/kg/injection, schedule: Q01DX001 (ip), vehicle: saline
[20] = dose: 100.0 mg/kg/injection, schedule: Q01DX001 (ip), vehicle: Klucel (hydroxypropylcellulose) (HPC)
[21] = dose: 100.0 mg/kg/injection, schedule: Q01DX001 (ip), vehicle: saline
[22] = dose: 200.0 mg/kg/injection, schedule: Q01DX001 (ip), vehicle: Klucel (hydroxypropylcellulose) (HPC)
[23] = dose: 200.0 mg/kg/injection, schedule: Q01DX001 (ip), vehicle: saline
[24] = dose: 400.0 mg/kg/injection, schedule: Q01DX001 (ip), vehicle: Klucel (hydroxypropylcellulose) (HPC)
[25] = dose: 400.0 mg/kg/injection, schedule: Q01DX001 (ip), vehicle: saline
[26] = dose: 50.0 mg/kg/injection, schedule: Q01DX001 (ip), vehicle: Klucel (hydroxypropylcellulose) (HPC)

SMILES: COC1OC(CN=[N+]=[N-])C(N=[N+]=[N-])C(OS(C)(=O)=O)C1OS(C)(=O)=O (centres undefined)
- T/C [1]: 92 % of control
- T/C [2]: 90 % of control
- T/C [3]: 94 % of control

SMILES: O=S1CCCCO1 (centres undefined)
- T/C (dose: 37.5 mg/kg/injection, schedule: Q01DX009 (ip), vehicle: saline): 96 % of control
- T/C [4]: 101 % of control
- T/C (dose: 75.0 mg/kg/injection, schedule: Q01DX009 (ip), vehicle: saline): 91 % of control
- T/C [5]: 101 % of control
- T/C (dose: 150.0 mg/kg/injection, schedule: Q01DX009 (ip), vehicle: saline): 96 % of control
- T/C [6]: 104 % of control

SMILES: CCN(CC)c1ccc(N)cc1
- T/C (dose: 6.25 mg/kg/injection, schedule: Q01DX009 (ip), vehicle: saline with Tween-80): 112 % of control
- T/C (dose: 12.5 mg/kg/injection, schedule: Q01DX009 (ip), vehicle: saline with Tween-80): 102 % of control
- T/C (dose: 12.5 mg/kg/injection, schedule: Q04DX003 (ip), vehicle: saline with Tween-80): 100 % of control
- T/C (dose: 25.0 mg/kg/injection, schedule: Q01DX009 (ip), vehicle: saline with Tween-80): 104 % of control
- T/C (dose: 25.0 mg/kg/injection, schedule: Q04DX003 (ip), vehicle: saline with Tween-80): 94 % of control

SMILES: OCC1OC(n2ccc3c([Se])ncnc32)C(O)C1O (centres undefined)
- T/C [7]: 119 % of control
- T/C [8]: 122 % of control
- T/C (dose: 50.0 mg/kg/injection, schedule: Q01DX005 (ip), vehicle: saline): 115 % of control
- T/C [9]: 122 % of control

SMILES: CN=C(NC)c1cccc(NC(=O)/C=C\c2ccc(/C=C/C(=O)Nc3cccc(C(=NC)NC)c3)cc2)c1
- T/C (dose: 0.56 mg/kg/injection, schedule: Q01DX Z (ip), vehicle: carboxymethylcellulose (CMC)): 103 % of control
- T/C (dose: 1.12 mg/kg/injection, schedule: Q01DX Z (ip), vehicle: carboxymethylcellulose (CMC)): 103 % of control
- T/C (dose: 2.25 mg/kg/injection, schedule: Q01DX Z (ip), vehicle: carboxymethylcellulose (CMC)): 120 % of control

SMILES: c1cc[c]([Sn]([c]2ccccc2)([c]2ccccc2)[n]2cnc3cncnc32)cc1
- T/C (dose: 5.0 mg/kg/injection, schedule: Q01DX001 (ip), vehicle: other): 111 % of control
- T/C (dose: 10.0 mg/kg/injection, schedule: Q01DX001 (ip), vehicle: other): 100 % of control

SMILES: CC(C)=C1C2C=CC1C(CO)C2CO (centres undefined)
- T/C [10]: 106 % of control
- T/C [11]: 105 % of control
- T/C [12]: 91 % of control
- T/C [13]: 114 % of control
- T/C [14]: 102 % of control
- T/C [15]: 102 % of control

SMILES: CN(C)CSc1nc2ccccc2s1
- T/C [16]: 93 % of control
- T/C [17]: 89 % of control
- T/C [18]: 93 % of control

SMILES: Nc1ncnc2c1nnn2C1OC(CO)C(O)C1O (centres undefined)
- T/C (dose: 42.0 mg/kg/injection, schedule: Q01DX015 (ip), vehicle: saline): 104 % of control
- T/C [19]: 107 % of control
- T/C (dose: 63.0 mg/kg/injection, schedule: Q01DX015 (ip), vehicle: saline): 98 % of control
- T/C (dose: 72.0 mg/kg/injection, schedule: Q01DX015 (ip), vehicle: saline): 117 % of control
- T/C [20]: 97 % of control
- T/C [21]: 109 % of control and 106 % of control
- T/C [11]: 95 % of control
- T/C (dose: 180.0 mg/kg/injection, schedule: Q01DX001 (ip), vehicle: Klucel (hydroxypropylcellulose) (HPC)): 120 % of control
- T/C (dose: 180.0 mg/kg/injection, schedule: Q01DX001 (ip), vehicle: saline): 113 % of control
- T/C [22]: 92 % of control
- T/C [23]: 116 % of control and 109 % of control
- T/C [13]: 95 % of control
- T/C (dose: 270.0 mg/kg/injection, schedule: Q01DX001 (ip), vehicle: Klucel (hydroxypropylcellulose) (HPC)): 122 % of control
- T/C [24]: 122 % of control and 97 % of control
- T/C [25]: 106 % of control
- T/C [15]: 92 % of control

SMILES: CCOC(=O)C(CNc1cccc2ccncc12)C(=O)OCC
- T/C [16]: 109 % of control
- T/C [17]: 94 % of control
- T/C [18]: 115 % of control

SMILES: COc1cc(C)c(OC)c(CCl)c1C
- T/C [1]: 97 % of control
- T/C [2]: 98 % of control
- T/C [3]: 92 % of control

SMILES: O=C(N/N=C/c1ccccc1[N+](=O)[O-])c1ccccc1
- T/C [10]: 94 % of control
- T/C [12]: 94 % of control
- T/C [14]: 97 % of control

SMILES: CC(C)(C)C1CC(C(F)(F)F)(C(F)(F)F)OP(=O)(N2CCCCC2)O1 (centres undefined)
- T/C [26]: 98 % of control
- T/C [20]: 100 % of control
- T/C [22]: 96 % of control

SMILES: Cc1ccc(CCCCCCCCCCCC(=O)O)cc1
- T/C [16]: 93 % of control
- T/C [17]: 97 % of control
- T/C [18]: 93 % of control

SMILES: Oc1ccc(-c2ccccc2)cc1CNC12CC3CC(CC(C3)C1)C2
- T/C [10]: 100 % of control
- T/C [11]: 90 % of control
- T/C [12]: 88 % of control
- T/C [13]: 100 % of control
- T/C [14]: 93 % of control
- T/C [15]: 94 % of control

SMILES: Cc1[nH]nc(C(F)(F)F)c1N=NN(C)C
- T/C (dose: 175.0 mg/kg/injection, schedule: Q01DX009 (ip), vehicle: saline): 90 % of control

SMILES: O=C(Nc1ccc([N+](=O)[O-])cc1Cl)Oc1ccc2ccccc2c1
- T/C [10]: 92 % of control
- T/C [11]: 100 % of control
- T/C [12]: 87 % of control
- T/C [13]: 97 % of control
- T/C [15]: 100 % of control

SMILES: O=c1oc2c(CN3CCCCC3)c(O)ccc2c2c1CCCC2
- T/C (dose: 100.0 mg/kg/injection, schedule: Q01DX001 (ip), vehicle: carboxymethylcellulose (CMC)): 93 % of control
- T/C (dose: 200.0 mg/kg/injection, schedule: Q01DX001 (ip), vehicle: carboxymethylcellulose (CMC)): 96 % of control
- T/C (dose: 400.0 mg/kg/injection, schedule: Q01DX001 (ip), vehicle: carboxymethylcellulose (CMC)): 93 % of control

SMILES: Oc1ccc(Br)c2cccnc12
- T/C [19]: 100 % of control
- T/C [21]: 103 % of control
- T/C [23]: 103 % of control
- T/C [25]: 100 % of control

SMILES: CC[n+]1cccc(C#N)c1
- T/C [4]: 98 % of control
- T/C (dose: 75.0 mg/kg/injection, schedule: Q04DX003 (ip), vehicle: saline): 93 % of control
- T/C [5]: 103 % of control
- T/C (dose: 150.0 mg/kg/injection, schedule: Q04DX003 (ip), vehicle: saline): 98 % of control
- T/C [6]: 101 % of control

SMILES: Cn1cnc([N+](=O)[O-])c1Sc1nc(N)nc2c1ncn2C1CC(O)C(CO)O1 (centres undefined)
- T/C (dose: 6.25 mg/kg/injection, schedule: Q01DX005 (ip), vehicle: saline): 155 % of control
- T/C [7]: 173 % of control
- T/C [8]: 150 % of control
- T/C [9]: 94 % of control
- T/C (dose: 200.0 mg/kg/injection, schedule: Q01DX005 (ip), vehicle: saline): 107 % of control
- T/C (dose: 240.0 mg/kg/injection, schedule: Q01DX005 (ip), vehicle: saline): 122 % of control
- T/C (dose: 600.0 mg/kg/injection, schedule: Q01DX005 (ip), vehicle: saline): 115 % of control

SMILES: Cn1c(=O)c2[nH]c(CS(=O)(=O)Cc3nc4c([nH]3)c(=O)n(C)c(=O)n4C)nc2n(C)c1=O
- T/C (dose: 50.0 mg/kg/injection, schedule: Q01DX001 (ip), vehicle: other): 90 % of control
- T/C (dose: 100.0 mg/kg/injection, schedule: Q01DX001 (ip), vehicle: other): 101 % of control
- T/C (dose: 200.0 mg/kg/injection, schedule: Q01DX001 (ip), vehicle: other): 95 % of control
- T/C (dose: 400.0 mg/kg/injection, schedule: Q01DX001 (ip), vehicle: other): 92 % of control

SMILES: CCCCCCCCCCCCCCCCCC(=O)C(C)(C)C
- T/C (dose: 25.0 mg/kg/injection, schedule: Q01DX001 (ip), vehicle: Klucel (hydroxypropylcellulose) (HPC)): 92 % of control
- T/C [26]: 98 % of control
- T/C [20]: 98 % of control
- T/C [22]: 98 % of control
- T/C [24]: 95 % of control

SMILES: O=C(Nc1ccc(Cl)cc1)Nc1ncc(Cl)s1
- T/C [10]: 94 % of control
- T/C [12]: 96 % of control
- T/C [14]: 89 % of control

SMILES: [N-]=[N+]=NCC1OC(n2cnc3c(N)ncnc32)C(O)C1O (centres undefined)
- T/C [21]: 95 % of control
- T/C [23]: 103 % of control
- T/C [25]: 103 % of control

— PubChem BioAssay AID248 (DTP/NCI, 2004)
